Molecular target: mGlu5 WT (Homo sapiens, UniProt P41594)
Assay: cell-based
Design: species or system HEK293

mGlu5 WT, sequence (P41594 whole entry): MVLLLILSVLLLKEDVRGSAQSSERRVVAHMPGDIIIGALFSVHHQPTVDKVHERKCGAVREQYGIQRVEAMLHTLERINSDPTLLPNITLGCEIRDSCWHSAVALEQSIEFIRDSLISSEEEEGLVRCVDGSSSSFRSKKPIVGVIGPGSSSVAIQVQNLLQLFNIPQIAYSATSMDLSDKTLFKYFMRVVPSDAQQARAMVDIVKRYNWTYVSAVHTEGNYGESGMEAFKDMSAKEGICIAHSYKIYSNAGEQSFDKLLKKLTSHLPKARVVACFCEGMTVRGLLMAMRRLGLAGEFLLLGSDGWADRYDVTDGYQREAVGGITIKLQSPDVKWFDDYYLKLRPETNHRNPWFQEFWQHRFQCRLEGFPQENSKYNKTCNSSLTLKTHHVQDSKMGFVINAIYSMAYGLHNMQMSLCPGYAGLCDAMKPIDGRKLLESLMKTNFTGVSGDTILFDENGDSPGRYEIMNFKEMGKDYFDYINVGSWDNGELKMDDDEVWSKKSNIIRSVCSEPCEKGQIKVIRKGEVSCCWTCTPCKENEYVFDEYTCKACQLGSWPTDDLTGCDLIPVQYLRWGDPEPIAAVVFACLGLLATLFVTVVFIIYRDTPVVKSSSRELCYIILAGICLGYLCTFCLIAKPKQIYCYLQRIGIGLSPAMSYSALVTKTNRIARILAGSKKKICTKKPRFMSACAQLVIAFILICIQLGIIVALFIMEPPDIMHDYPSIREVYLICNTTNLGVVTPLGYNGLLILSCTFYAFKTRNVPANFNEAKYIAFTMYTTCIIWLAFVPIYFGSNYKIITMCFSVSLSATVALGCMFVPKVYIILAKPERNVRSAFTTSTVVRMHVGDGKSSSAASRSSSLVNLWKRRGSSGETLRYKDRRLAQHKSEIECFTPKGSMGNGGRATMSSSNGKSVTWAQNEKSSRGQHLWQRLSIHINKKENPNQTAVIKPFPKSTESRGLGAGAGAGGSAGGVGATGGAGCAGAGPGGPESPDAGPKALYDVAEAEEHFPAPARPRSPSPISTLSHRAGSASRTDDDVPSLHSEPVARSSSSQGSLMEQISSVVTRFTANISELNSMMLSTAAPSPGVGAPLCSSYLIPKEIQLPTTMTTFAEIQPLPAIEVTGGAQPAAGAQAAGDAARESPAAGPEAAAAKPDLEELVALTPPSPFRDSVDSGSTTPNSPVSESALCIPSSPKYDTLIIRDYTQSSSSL

EC50 [nM] | SMILES
5.25 | C[C@@H](NC(=O)c1ccc(C#Cc2cccc(F)c2)cn1)C(C)(C)O [compound 1, VU0424465]
1170 | C[C@@H](NC(=O)c1ccc(/N=N/c2cccc(F)c2)cn1)C(C)(C)O [compound 2, (R,E)-5-((3-fluorophenyl)diazenyl)-N-(3-hydroxy-3-methylbutan-2-yl)picolinamide]
